System: pyramidal gap junctions
Assay: Patch clamp recordings of electrically coupled pyramidal pairs in cortical slices, bath-applied soluble Aβ
Assay type: cell-based, rats and ferrets
Conditions: for washout time to restore gap junctional activity (reversibility): peptide washout

| Substance | inhibition of pyramidal gap junction activity, compared between species | washout time to restore gap junctional activity (reversibility) [min] | reduction of postjunctional responses (1 μM bath-applied for 10 minutes, FIG. 2) [%] | effect on presynaptic action potentials (application of Aβ1-40, FIG. 2) |
| --- | --- | --- | --- | --- |
| β-Amyloid [25-35] (GSNKGAIIGLM) [Aβ25-35] | same effect as Aβ 1-40 and Aβ 1-42 | 10 | – | – |
| β-Amyloid [Aβ1-40, β-Amyloid [1-40]] | – | 10 | ~50 | not influenced |

Source: US7704946B2, “Reversible inhibition of pyramidal gap junction activity” (Caritas St. Elizabeth's Medical Center, priority 2006, dated 2010)
